Active and inactive are the calls of the source. The rule behind the calls is not given here.
System: CCRIS mutagenicity, Ames/micronucleus/aberration tests
Assay: CCRIS mutagenicity studies
[1] = Test System: AMES SALMONELLA TYPHIMURIUM, Strain/Indicator: TA100, Metabolic Activation: NONE, Method: STANDARD PLATE
[2] = Test System: AMES SALMONELLA TYPHIMURIUM, Strain/Indicator: TA102, Metabolic Activation: NONE, Method: STANDARD PLATE
[3] = Test System: AMES SALMONELLA TYPHIMURIUM, Strain/Indicator: TA98, Metabolic Activation: NONE, Method: PREINCUBATION
[4] = Test System: AMES SALMONELLA TYPHIMURIUM, Strain/Indicator: TA100, Metabolic Activation: NONE, Method: PREINCUBATION

## Nc1cccc2cccc(N)c12
Test System: AMES SALMONELLA TYPHIMURIUM, Strain/Indicator: TA98, Metabolic Activation: RAT LIVER, CYTOSOL, AROCLOR 1254, Method: STANDARD PLATE
  mutagenic call: inactive; negative
Test System: AMES SALMONELLA TYPHIMURIUM, Strain/Indicator: TA98, Metabolic Activation: RAT LIVER, MICROSOMES, AROCLOR 1254, Method: STANDARD PLATE
  mutagenic call: active; positive

## Cc1cc(C)c(C)c(C)c1
Test System: AMES SALMONELLA TYPHIMURIUM, Strain/Indicator: TA97A, Metabolic Activation: NONE, Method: STANDARD PLATE
  mutagenic call: active; positive
Test System: AMES SALMONELLA TYPHIMURIUM, Strain/Indicator: TA97A, Metabolic Activation: RAT LIVER S-9, AROCLOR 1254, Method: STANDARD PLATE
  mutagenic call: inactive; negative
Test System: AMES SALMONELLA TYPHIMURIUM, Strain/Indicator: TA98, Metabolic Activation: NONE, Method: STANDARD PLATE
  mutagenic call: inactive; negative
Test System: AMES SALMONELLA TYPHIMURIUM, Strain/Indicator: TA98, Metabolic Activation: RAT LIVER S-9, AROCLOR 1254, Method: STANDARD PLATE
  mutagenic call: inactive; negative
[1]
  mutagenic call: inactive; negative
Test System: AMES SALMONELLA TYPHIMURIUM, Strain/Indicator: TA100, Metabolic Activation: RAT LIVER S-9, AROCLOR 1254, Method: STANDARD PLATE
  mutagenic call: inactive; negative
[2]
  mutagenic call: inactive; negative
Test System: AMES SALMONELLA TYPHIMURIUM, Strain/Indicator: TA102, Metabolic Activation: RAT LIVER S-9, AROCLOR 1254, Method: STANDARD PLATE
  mutagenic call: inactive; negative

## Nc1ccc(NC(=O)c2ccc(N)cc2)cc1
[3]
  mutagenic call: inactive; negative
Test System: AMES SALMONELLA TYPHIMURIUM, Strain/Indicator: TA98, Metabolic Activation: RAT LIVER S-9, PHENOBARBITAL AND BETA-NAPHTHOFLAVONE, Method: PREINCUBATION
  mutagenic call: active; positive
[4]
  mutagenic call: inactive; negative
Test System: AMES SALMONELLA TYPHIMURIUM, Strain/Indicator: TA100, Metabolic Activation: RAT LIVER S-9, PHENOBARBITAL AND BETA-NAPHTHOFLAVONE, Method: PREINCUBATION
  mutagenic call: inactive; negative
Test System: AMES SALMONELLA TYPHIMURIUM, Strain/Indicator: TA1535, Metabolic Activation: NONE, Method: PREINCUBATION
  mutagenic call: inactive; negative
Test System: AMES SALMONELLA TYPHIMURIUM, Strain/Indicator: TA1535, Metabolic Activation: RAT LIVER S-9, PHENOBARBITAL AND BETA-NAPHTHOFLAVONE, Method: PREINCUBATION
  mutagenic call: inactive; negative
Test System: AMES SALMONELLA TYPHIMURIUM, Strain/Indicator: TA1537, Metabolic Activation: RAT LIVER S-9, PHENOBARBITAL AND BETA-NAPHTHOFLAVONE, Method: PREINCUBATION
  mutagenic call: active; positive
Test System: E.COLI, Strain/Indicator: WP2UVRA, Metabolic Activation: NONE, Method: PREINCUBATION
  mutagenic call: inactive; negative
Test System: E.COLI, Strain/Indicator: WP2UVRA, Metabolic Activation: RAT LIVER S-9, PHENOBARBITAL AND BETA-NAPHTHOFLAVONE, Method: PREINCUBATION
  mutagenic call: inactive; negative

## CCCCCCCC(O)C=CC=O (configuration not stated)
End Point: IN VITRO CHROMOSOMAL ABERRATIONS, Test System: RAT HEPATOCYTES, Metabolic Activation: NONE
  mutagenic call: active; positive
End Point: IN VITRO MICRONUCLEUS, Test System: RAT HEPATOCYTES, Metabolic Activation: NONE
  mutagenic call: inactive; negative

## C=CC(=O)OCCO
End Point: In vitro chromosomal aberrations, Test System: Chinese hamster lung (CHL/IU) cells, Metabolic Activation: Rat, Liver, S9, Phenobarbital and 5,6-benzoflavone
  mutagenic call: active; positive (structural changes and ploidy)
Test System: AMES SALMONELLA TYPHIMURIUM, Strain/Indicator: TA102, Metabolic Activation: RAT, LIVER, S-9, PHENOBARBITAL AND 5,6-BENZOFLAVONE, Method: STANDARD PLATE
  mutagenic call: inactive; negative
Test System: AMES SALMONELLA TYPHIMURIUM, Strain/Indicator: TA2638, Metabolic Activation: RAT, LIVER, S-9, PHENOBARBITAL AND 5,6-BENZOFLAVONE, Method: STANDARD PLATE
  mutagenic call: inactive; negative
Test System: Ames Salmonella typhimurium, Strain/Indicator: TA98, Metabolic Activation: None, Method: Preincubation
  mutagenic call: inactive; negative
Test System: Ames Salmonella typhimurium, Strain/Indicator: TA98, Metabolic Activation: Rat, Liver, S9, Sodium phenobarbital and 5,6-benzoflavone (10%), Method: Preincubation
  mutagenic call: inactive; negative
Test System: Ames Salmonella typhimurium, Strain/Indicator: TA100, Metabolic Activation: None, Method: Preincubation
  mutagenic call: inactive; negative
Test System: Ames Salmonella typhimurium, Strain/Indicator: TA100, Metabolic Activation: Rat, Liver, S9, Sodium phenobarbital and 5,6-benzoflavone (10%), Method: Preincubation
  mutagenic call: inactive; negative
Test System: Ames Salmonella typhimurium, Strain/Indicator: TA1535, Metabolic Activation: None, Method: Preincubation
  mutagenic call: inactive; negative
Test System: Ames Salmonella typhimurium, Strain/Indicator: TA1535, Metabolic Activation: Rat, Liver, S9, Sodium phenobarbital and 5,6-benzoflavone (10%), Method: Preincubation
  mutagenic call: inactive; negative
Test System: Ames Salmonella typhimurium, Strain/Indicator: TA1537, Metabolic Activation: None, Method: Preincubation
  mutagenic call: inactive; negative
Test System: Ames Salmonella typhimurium, Strain/Indicator: TA1537, Metabolic Activation: Rat, Liver, S9, Sodium phenobarbital and 5,6-benzoflavone (10%), Method: Preincubation
  mutagenic call: inactive; negative
Test System: E. COLI, Strain/Indicator: WP2 (PKM101), Metabolic Activation: RAT, LIVER, S-9, PHENOBARBITAL AND 5,6-BENZOFLAVONE, Method: STANDARD PLATE
  mutagenic call: active; positive
Test System: E. COLI, Strain/Indicator: WP2 UVRA (PKM101), Metabolic Activation: RAT, LIVER, S-9, PHENOBARBITAL AND 5,6-BENZOFLAVONE, Method: STANDARD PLATE
  mutagenic call: active; positive
Test System: E. coli, Strain/Indicator: WP2uvrA/pKM101, Metabolic Activation: None, Method: Preincubation
  mutagenic call: active; positive
Test System: MOUSE LYMPHOMA, Strain/Indicator: L5178Y (TK+/TK-), Metabolic Activation: NONE, Method: SUSPENSION/PLATE
  mutagenic call: active; positive

## C/C=C/Cl
Test System: AMES SALMONELLA TYPHIMURIUM, Strain/Indicator: TA100, Metabolic Activation: NONE, Method: DESICCATOR
  mutagenic call: active; positive
Test System: AMES SALMONELLA TYPHIMURIUM, Strain/Indicator: TA100, Metabolic Activation: RAT, LIVER, S-9, PCB OR PHENOBARBITAL, Method: DESICCATOR
  mutagenic call: active; positive

## CCn1cc(C(=O)O)c(=O)c2cc(F)c(N3CCNCC3)nc21
Test System: AMES SALMONELLA TYPHIMURIUM, Strain/Indicator: HISG428, Metabolic Activation: NONE, Method: STANDARD PLATE
  mutagenic call: inactive; negative
Test System: AMES SALMONELLA TYPHIMURIUM, Strain/Indicator: TA92, Metabolic Activation: NONE, Method: STANDARD PLATE
  mutagenic call: active; positive
[2]
  mutagenic call: active; positive
Test System: AMES SALMONELLA TYPHIMURIUM, Strain/Indicator: TA103, Metabolic Activation: NONE, Method: STANDARD PLATE
  mutagenic call: active; positive
Test System: AMES SALMONELLA TYPHIMURIUM, Strain/Indicator: TA104, Metabolic Activation: NONE, Method: STANDARD PLATE
  mutagenic call: inactive; negative
Test System: AMES SALMONELLA TYPHIMURIUM, Strain/Indicator: TA2638, Metabolic Activation: NONE, Method: STANDARD PLATE
  mutagenic call: active; positive
Test System: AMES SALMONELLA TYPHIMURIUM, Strain/Indicator: TA2661, Metabolic Activation: NONE, Method: STANDARD PLATE
  mutagenic call: inactive; negative
Test System: AMES SALMONELLA TYPHIMURIUM, Strain/Indicator: TA2662, Metabolic Activation: NONE, Method: STANDARD PLATE
  mutagenic call: active; positive
Test System: AMES SALMONELLA TYPHIMURIUM, Strain/Indicator: TA2678, Metabolic Activation: NONE, Method: STANDARD PLATE
  mutagenic call: inactive; negative

## CCOc1ccc(NC(=O)CC(C)O)cc1 (configuration not stated)
Test System: AMES SALMONELLA TYPHIMURIUM, Strain/Indicator: TA100, Metabolic Activation: HAMSTER, LIVER, S-9, KANECHLOR 400, Method: PREINCUBATION
  mutagenic call: active; positive
Test System: AMES SALMONELLA TYPHIMURIUM, Strain/Indicator: TA100, Metabolic Activation: HAMSTER, LIVER, S-9, Method: PREINCUBATION
  mutagenic call: inactive; negative
Test System: AMES SALMONELLA TYPHIMURIUM, Strain/Indicator: TA100, Metabolic Activation: RAT, LIVER, S-9, KANECHLOR 400, Method: PREINCUBATION
  mutagenic call: inactive; negative
Test System: AMES SALMONELLA TYPHIMURIUM, Strain/Indicator: TA100, Metabolic Activation: RAT, LIVER, S-9, Method: PREINCUBATION
  mutagenic call: inactive; negative

## CC(=O)ON(OCc1ccc(Cl)cc1)C(=O)c1ccccc1
[1]
  mutagenic call: active; positive
Test System: AMES SALMONELLA TYPHIMURIUM, Strain/Indicator: TA100, Metabolic Activation: RAT, S-9, AROCLOR, Method: STANDARD PLATE
  mutagenic call: active; positive

## CCCCN(CC(O)c1ccc(O)cc1)N=O (configuration not stated)
[3]
  mutagenic call: inactive; negative
Test System: AMES SALMONELLA TYPHIMURIUM, Strain/Indicator: TA98, Method: PREINCUBATION
  mutagenic call: inactive; negative
[4]
  mutagenic call: inactive; negative
Test System: AMES SALMONELLA TYPHIMURIUM, Strain/Indicator: TA100, Method: PREINCUBATION
  mutagenic call: inactive; negative
